Measurements published in US20230365493A1, “COMPOUNDS AND METHODS” (DEMAGTECH PTY LTD, priority 2020, published 2023).

Assays:
Arabidopsis thaliana [1] = assay: Small-scale drift (volatility) assay; parameters: species or system Arabidopsis thaliana Col-0; details: for drift burn (volatility), FIG. 6: 15 mM and 30 mM, same methodology; for drift behaviour, FIG. 27: 2.5 or 5 mM, images recorded at 17 days; for drift burn (volatility), FIG. 5: 5, 10 or 15 mM in lid in centre of pot, imaged after 2 weeks
Experimental: A small-scale drift assay was established. Pots (63×63×59 mm) were filled with Seedling Substrate Plus+ soil (Bord na Móna Horticulture Ltd, Newbridge, Ireland) consisting of Irish peat. Soil was pre-wet before sowing to saturation and a plastic lid from a 50 mL tube placed in the centre of each pot. Seeds of wild type Col-0 Arabidopsis thaliana were sown around each of the lids. Seeds were cold-treated for 3 days in the dark at 4° C. to synchronize germination and then grown in a chamber at 22° C., with 60% relative humidity and in a 16 h light/8 h dark photoperiod. […] After growth for 2 weeks plants were imaged. (In the case of FIG. 27, images were recorded at 17 days).
A second experiment was performed using the same methodology, but at higher concentrations (15 mM and 30 mM).

Arabidopsis thaliana [2] = assay: Activity vs a panel of plants: Arabidopsis thaliana; type: in vivo; details: 31.25 μM to 4000 μM; imaged day 12
Source text: (§1) Pots (63×63×59 mm) were filled with Seedling Substrate Plus+ soil (Bord na Móna Horticulture Ltd, Newbridge, Ireland) consisting of Irish peat. Soil was pre-wet to saturation before sowing seeds. Seeds of the following species were sown. • Arabidopsis thaliana • Cynodon dactylon (couch grass) • Eragrostis tef (tef) • Lolium rigidum (herbicide resistant ryegrass) • Ratibida columnifera (prairie coneflower) • Raphanus raphanistrum (wild radish) • Solanum lycopersicum (tomato) • Triticum aestivum (wheat)
(§2) The number of seeds depended on germination rate and plant size. Seeds were sown in pots (63×63×59 mm) of Seedling Substrate Plus+ soil (Bord na Móna Horticulture Ltd, Newbridge, Ireland) consisting of Irish peat. Soil was pre-wet before sowing to saturation and watered throughout the experiment to maintain adequate moisture. No fertilizer was added. Seeds were cold-treated 7 days in the dark at 4° C. to synchronize germination and grown in a chamber at 22° C., with 60% relative humidity and a 16 h light/8 h dark photoperiod. […]
(§3) Each compound was tested on seedlings by pipetting 600 μL of 0, 31.25, 62.5, 125, 250, 500, 1000, 2000 or 4000 μmol/L solutions directly onto the plants; these quantities and concentrations are equivalent to ˜10, 20, 40, 78, 156, 312, 625 and 1250 g/ha a.i. […]

[3] = test system: Cynodon dactylon (couch grass); assay: Activity vs a panel of plants: Cynodon dactylon; type: in vivo; details: 31.25 μM to 4000 μM; imaged day 10
Source text: as §1, §2, §3

[4] = test system: Triticum aestivum (wheat); assay: Activity vs a panel of plants: Triticum aestivum; type: in vivo; details: 31.25 μM to 4000 μM; imaged day 12
Source text: as §1, §2, §3

[5] = test system: Lolium rigidum (herbicide resistant ryegrass); assay: Activity vs a panel of plants: Lolium rigidum; type: in vivo; details: 31.25 μM to 4000 μM; imaged day 12
Source text: as §1, §2, §3

[6] = test system: Raphanus raphanistrum (wild radish); assay: Activity vs a panel of plants: Raphanus raphanistrum; type: in vivo; details: 31.25 μM to 4000 μM; imaged day 10
Source text: as §1, §2, §3

[7] = test system: Ratibida columnifera (prairie coneflower); assay: Activity vs a panel of plants: Ratibida columnifera; type: in vivo; details: 31.25 μM to 4000 μM; imaged day 12
Source text: as §1, §2, §3

[8] = test system: Solanum lycopersicum (tomato); assay: Activity vs a panel of plants: Solanum lycopersicum; type: in vivo; details: 31.25 μM to 4000 μM; imaged day 10
Source text: as §1, §2, §3

[9] = test system: A. thaliana wild type Col-0 or single-locus DMOc line; assay: Compatibility with the DMOc dicamba tolerance trait; type: in vivo, Arabidopsis thaliana; details: wild type vs DMOc line; dicamba 7-125 μM, 1·HCl 31-500 μM; sprayed at 4 and 7 days; imaged Day 11
Source text: To recreate dicamba tolerance by dicamba monooxygenase in A. thaliana similarly to that made by Behrens et al. (2007, Science 316: 1185-1188) a synthetic gene encoding the oxygenaseDIC from Stenotrophomonas maltophilia strain DI-6 (GenBank accession AY786443) was made to include a 58-residue chloroplast targeting leader used by Anderson and Smith (1986, Biochem. J. 240: 709-715) and incorporated a […] mutation said to provide useful changes in pH and temperature optima (See, for example, […] in International Patent Application WO2007146706A2). A BamHI site immediately preceding the sequence encoding the start Met and a SacI site immediately after the stop codon were used to subclone this synthetic DMOc gene into pMDC43 (Curtis and Grossniklaus 2003 Plant Physiol. 133: 462-469), from which the mGFP6 coding sequence and Gateway recombination cassette were removed by the same restriction enzymes, putting DMOc under control of a double CaM[…] promoter and providing it the nopaline synthase terminator. The plasmid pMDC43-DMOc was transferred from E. coli containing the plasmid to Agrobacterium tumefaciens (strain LBA4404) using a helper strain (E. coli […] pRK2013). Wild type Col-0 Arabidopsis thaliana was transformed by in planta transformation. The first transgenic generation (T1) was selected on MS-agar plates (1% agar, 1×MS salts, pH 5.7, 1% glucose) containing 20 μg/mL hygromycin. […]

Eragrostis tef (tef) = assay: Activity vs a panel of plants: Eragrostis tef; type: in vivo; details: 31.25 μM to 4000 μM; imaged day 12
Source text: as §1, §2, §3

Structure (SMILES) | drift burn (volatility), FIG. 6 (Arabidopsis thaliana [1]) | drift behaviour, FIG. 27 (Arabidopsis thaliana [1]) | drift burn (volatility), FIG. 5 (Arabidopsis thaliana [1]) | activity against Arabidopsis thaliana on an equimolar basis, FIG. 7 (Arabidopsis thaliana [2]) | activity against Cynodon dactylon on an equimolar basis, FIGS. 8 and 9 [3] | activity against Triticum aestivum on an equimolar basis, FIG. 17 [4] | activity against Lolium rigidum on an equimolar basis, FIG. 11 [5] | activity against Raphanus raphanistrum on an equimolar basis, FIGS. 13 and 14 [6] | activity against Ratibida columnifera on an equimolar basis, FIG. 12 [7] | activity against Solanum lycopersicum on an equimolar basis, FIGS. 15 and 16 [8] | compatibility with the dicamba tolerance (DMOc) trait, FIG. 26 [9] | activity against Eragrostis tef on an equimolar basis, FIG. 10 (Eragrostis tef (tef))
COc1c(Cl)ccc(Cl)c1C(=O)OCCN(C)C.Cl [Compound 1. HCl, 2-(dimethylamino)ethyl 3,6-dichloro-2-methoxybenzoate hydrochloride] | did not show any drift burn | does not drift | no drift burn at all was visible | comparable activity | comparable activity | comparable activity | comparable activity | comparable activity | comparable activity | comparable activity | Compatible with the DMOc Trait | comparable activity
COc1c(Cl)ccc(Cl)c1C(=O)O [dicamba, 3,6-dichloro-2-methoxybenzoic acid, reference compound] | did | drifted | burn symptoms are apparent | comparable activity | comparable activity | comparable activity | comparable activity | comparable activity | comparable activity | comparable activity | compatibility | comparable activity
